Reference: patent US6232348A, “Hydroxymethyl derivatives of 2-amino-1,2,3,4-tetrahydronaphthalene as cardiovascular agent” (Zambon Group S.p.A., priority 1997, dated 2001)

Columns and labels:
[1] = test system: D2; assay: D2 activity in the rabbit ear artery (REA); set-up: species or system New Zealand rabbit; conditions: electrically stimulated artery rings; agonistic activity at the peak of the effect; cumulative administration
Protocol: Evaluation of the D2 Activity in the Rabbit Ear Artery (REA)
Artery rings were prepared following the method described by Steinsland et al., Science, 1978, 443, 199, modified as follows.
Male New Zealand rabbits (weighing 2.5-3 Kg) were sacrificed by a pentobarbital intravenous injection and bled. The central ear artery was cut into 3 mm-rings. The samples were placed into a 25 ml-bath containing a Krebs solution (mM/l): sodium chloride 118, potassium chloride 4.7, calcium chloride 2.5, magnesium sulphate 1.2, sodium hydrogenocarbonate 25, potassium biphosphate 1.2, glucose 11.1, balanced with oxygen 95%/carbon dioxide 5% and maintained at 35±1° C. The Krebs solution was added with EDTA (10 μM) to present the cathecolamine oxidation, with desipramine (0.1 μM) and corticosterone (30 μM) to stop the neuronal and extraneuronal cathecolamine re-uptake.
The samples were electrically stimulated (10 Hz, 1 msec., 40-80 mA, 500 msec long) at intervals of 5 minutes.
The tested compounds were cumulatively administered.
As reference compounds the reference compounds A and B above were employed.
The agonistic activity was evaluated at the peak of the effect and expressed as potency ratio (EC50 of Ref. A/EC50 of the tested compound), as shown in Table 1.

[2] = test system: D1; assay: D1 activity on the rabbit splenic artery (RSA); conditions: rings contracted with U46619; agonistic activity at the peak of the effect; cumulative administration
Protocol: Evaluation of the D1 Activity on the Rabbit Splenic Artery (RSA)
Artery rings were prepared according to Semeraro et al., Naunyn. Schnied. Arch. Pharmacol., 1990, 342, 539. These were contracted with U46619 (9,11-dideoxy-11α,9α -epoxy-methanprostaglandine F2α) at a submaximal concentration of […]. The tested compounds were cumulatively administered.
As reference compound (S)-N-propyl-N-{6-[2-(2-methoxyphenoxy)-ethylamino]-hexyl}-5,6-dihydroxy-1,2,3,4-tetrahydro-2-naphthylamine dihydrochloride (Ref. A), described in example 6 of the international patent application No. WO 93/19036 was employed. Furthermore a compound of the invention was compared with its corresponding compound having in 5-position a hydroxy group in the place of a hydroxymethyl group. i.e. Compound 22 of the international patent application No. WO 96/08228, (S)-N-propyl-N-{6-[2-(4-methylsulfonylphenyl)-ethylamino]hexyl}-5,6-dihydroxy-1,2,3,4-tetrahydro-2-naphthylamine dihydrobromide (Ref. B). The agonistic activity was evaluated at the peak of the effect and expressed as potency ratio (EC50 of Ref. A/EC50 of the tested compound), as shown in Table 1.

[3] = Hypotensive activity in the anaesthetized dog; format: in vivo; conditions: intraduodenal (oral) administration, anaesthetized Beagle dogs; 184 nmoles/kg (compound of the invention), 5.52 nmoles/kg (Ref. B), doses equally active i.v.; 0-360 min
Protocol: Evaluation of the Hypotensive Activity in the Dog
Beagle dogs were anhaestetized with sodium pentobarbital (30 mg/kg i.v.) and a catheter was put in their carotid artery to measure the blood pressure. The catheter was connected with a pressure transductor. The compounds were administered by a catheter put in the duodenum. The effect on the average blood pressure is expressed as average effect with respect to the test time (Eavg =AUC0-360 /minutes) according to what described by Fettner S. H. et al., Eur. J. Clin. Pharmacol., 48:351-359, 1995. As reference compound the reference compound B above (Ref. B) was used. The controls were treated with the vehicle only.
The doses used for the oral administration were selected on the basis of the hypotensive activity data obtained after intravenous administration.

[4] = Absolute oral bioavailability in the dog; format: in vivo; conditions: Beagle dogs (4), 1 mg/kg oral by gavage vs 0.2 mg/kg bolus, domperidone pretreatment
Protocol: Evaluation of the Absolute Oral Bioavailability
Four Beagle dogs were intramuscularly treated with 20 mg of domperidone (to avoid emesis) and, after 60 minutes, with a bolus of 0.2 mg/kg of a solution of the compound of example 13. The solution of this compound was prepared by dissolving 10 mg thereof in 100 μl of ethanol and 380 μl of 0.1N HCl, the resulting solution being brought to 10 ml with water. Appropriate volumes of this solution were administered to obtain the desired dose based on the dog weight.
Venous blood sample (3 ml) were collected before drug administration and the following times after dosing: 2.5, 5, 10, 15, 20, 30, 45, 60, 90, 120, 180, 240, 300 and 360 minutes.
After a washout period of 7 days, the same 4 Beagle dogs were intramuscularly treated with 20 mg of domperidone and, after 60 minutes, orally treated by gavage with the compound of Example 13 at the dose of 1 mg/kg. […]
The following pharmacokinetic parameters were determined by non-compartmental analysis from the individual plasma concentration of the compound of Example 13: […]
AUC(()-t), the area under the plasma concentration-time curve between time zero and the last concentration observed, estimated by the linear trapezoidal rule; Absolute bioavailability (F), the percentage of oral dose that is systemically available, calculated according to the following equation: [formula] […]

SMILES	D2 activity (REA), potency ratio (EC50 of Ref. A/EC50 of the tested compound) [1]	D1 activity (RSA), potency ratio (EC50 of Ref. A/EC50 of the tested compound) [2]	average effect on blood pressure (Eavg = AUC0-360/minutes) [3]	Absolute oral bioavailability (F) ([4]; listed as Example 13, 1 mg/kg)	bioavailability ([4]; dog, plasma, po, 1 mg/kg, read-out: Absolute oral bioavailability (F))
CCCN(CCCCCCNCCc1ccc(S(C)(=O)=O)cc1)[C@H]1CCc2c(ccc(O)c2CO)C1 [Example 7, (S)-N-propyl-N-(6-(2-(4-methylsulfonylphenyl)ethylamino)hexyl)-5-hydroxymethyl-6-hydroxy-1,2,3,4-tetrahydro-2-naphthylamine]	1.25	2.5	-17.4±3.0 mmHg	28-43%	38.8 ± 7.2%
CCCN(CCCCCCNCCOc1ccccc1OC)[C@H]1CCc2c(ccc(O)c2O)C1.Cl.Cl [Ref. A, (S)-N-propyl-N-{6-[2-(2-methoxyphenoxy)-ethylamino]-hexyl}-5,6-dihydroxy-1,2,3,4-tetrahydro-2-naphthylamine dihydrochloride]	1	1	–	–	–
Br.Br.CCCN(CCCCCCNCCc1ccc(S(C)(=O)=O)cc1)[C@H]1CCc2c(ccc(O)c2O)C1 [Ref. B, (S)-N-propyl-N-{6-[2-(4-methylsulfonylphenyl)-ethylamino]hexyl}-5,6-dihydroxy-1,2,3,4-tetrahydro-2-naphthylamine dihydrobromide]	3.3	50	-3.5±3.9 mmHg	–	–
